From patent US6737383B1, “Herbicidal oxadiazolidines” (priority 1999, dated 2004)

What was measured:
soybean = assay: Test B pre/postemergence soybean; assay type: in vivo, Glycine max
Summary of the method: (§1)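 Herbicidal effect was estimated by eye on a ten-point control scale after plants spent twelve to sixteen days in a greenhouse following soil or foliar treatment. Foliar sprays targeted plants at one to four leaves; all doses were formulated in a non-phytotoxic solvent with surfactant.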

blackgrass = assay: Test B pre/postemergence blackgrass; assay type: in vivo, Alopecurus myosuroides
Summary of the method: as §1

corn = assay: Test B pre/postemergence corn; assay type: in vivo, Zea mays
Summary of the method: as §1

bamyardgrass = assay: Test B flood test barnyardgrass; assay type: in vivo, Echinochloa crus-galli
Summary of the method: (§2)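 Each value is a visual injury score relative to controls, with 10 meaning complete control and 0 no effect. Evaluation took place twelve to sixteen days after the 2-leaf-stage plants were treated and kept in the greenhouse.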

smallflower flatsedge = assay: Test B flood test smallflower flatsedge; assay type: in vivo, Cyperus difformis
Summary of the method: as §2

rape = assay: Test B pre/postemergence rape; assay type: in vivo, Brassica napus
Summary of the method: as §1

sugar beet = assay: Test B pre/postemergence sugar beet; assay type: in vivo, Beta vulgaris; conditions: for Plant response rating, Sugarbeets: Rate 250 g/ha
Summary of the method: as §1

giant foxtail = assay: Test B pre/postemergence giant foxtail; assay type: in vivo, Setaria faberii
Summary of the method: as §1

purple nutsedge = assay: Test B pre/postemergence purple nutsedge; assay type: in vivo, Cyperus rotundus
Summary of the method: as §1

surinam grass = assay: Test B pre/postemergence surinam grass; assay type: in vivo, Brachiaria decumbens
Summary of the method: as §1

rice = assay: Test B flood test rice; assay type: in vivo, Oryza sativa
Summary of the method: as §2

pigweed = assay: Test B pre/postemergence pigweed; assay type: in vivo, Amaranthus retroflexus
Summary of the method: as §1

cocklebur = assay: Test B pre/postemergence cocklebur; assay type: in vivo, Xanthium strumarium
Summary of the method: as §1

duck salad = assay: Test B flood test duck salad; assay type: in vivo, Heteranthera limosa
Summary of the method: as §2

wheat = assay: Test B pre/postemergence wheat; assay type: in vivo, Triticum aestivum; conditions: for Plant response rating, Wheat: Rate 250 g/ha
Summary of the method: as §1

crabgrass = assay: Test B pre/postemergence crabgrass; assay type: in vivo, Digitaria sanguinalis
Summary of the method: as §1

[1] = Postemergence, Rate 125 g/ha, scale of 0 to 10 where 0 is no effect and 10 is complete control
[2] = Preemergence, Rate 62 g/ha, scale 0 to 10 (0 no effect, 10 complete control)
[3] = Preemergence, Rate 125 g/ha, scale 0 to 10 (0 no effect, 10 complete control)
[4] = Preemergence, Rate 250 g/ha, scale of 0 to 10 where 0 is no effect and 10 is complete control
[5] = Preemergence, Rate 500 g/ha, scale 0 to 10 (0 no effect, 10 complete control)
[6] = Rate 62 g/ha, Postemergence, scale of 0 to 10 where 0 is no effect and 10 is complete control
[7] = Rate 250 g/ha, Postemergence, scale 0 to 10, 0 is no effect, 10 is complete control
[8] = Rate 500 g/ha, Postemergence, scale 0 to 10, 0 no effect, 10 complete control
[9] = Postemergence, Rate 250 g/ha, scale 0 to 10, 0 no effect, 10 complete control
[10] = Postemergence, Rate 62 g/ha, scale 0 to 10, 0 is no effect, 10 is complete control
[11] = Rate 500 g/ha, listed under Postemergence (flood test species), scale 0 to 10, 0 no effect, 10 complete control
[12] = flood test, listed under Postemergence, Rate 250 g/ha, scale 0 to 10, 0 no effect, 10 complete control
[13] = Postemergence (flood test species), Rate 125 g/ha, scale of 0 to 10 where 0 is no effect and 10 is complete control
[14] = Rate 62 g/ha, Postemergence section, flood test species, scale of 0 to 10 where 0 is no effect and 10 is complete control
[15] = Rate 250 g/ha, Postemergence (flood test), scale 0 to 10, 0 is no effect, 10 is complete control
[16] = Preemergence, Rate 125 g/ha, 0 is no effect, 10 is complete control
[17] = Preemergence, scale of 0 to 10 where 0 is no effect and 10 is complete control
[18] = Postemergence, scale 0 to 10, 0 is no effect, 10 is complete control

CC(C)N(C(=O)n1oc(=O)n(C2CCCCC2)c1=O)c1ccccc1 [Compound 112]
4: Soybean plant response rating (soybean; [1]) | Soybean plant response rating (soybean; [5]) | Soybean plant response rating (soybean; [6]) | Plant response rating, Soybean (soybean; [7]) | Blackgrass plant response rating (blackgrass; [1]) | Rape plant response rating (rape; [8]) | B. signalgrass plant response rating (surinam grass; Rate 500 g/ha, Postemergence, scale of 0 to 10 where 0 is no effect and 10 is complete control) | Crabgrass plant response rating (crabgrass; [1]) | Crabgrass plant response rating (crabgrass; [9])
2: Plant response rating, Blackgrass (blackgrass; [4]) | Corn plant response rating (corn; [5]) | Rape plant response rating (rape; [1]) | Rape plant response rating (rape; [6]) | Sugarbeets plant response rating (sugar beet; [1]) | Sugarbeets plant response rating (sugar beet; [6]) | Giant foxtail plant response rating (giant foxtail; [6]) | Plant response rating, Redroot pigweed (pigweed; [3]) | Redroot pigweed plant response rating (pigweed; [6]) | Cocklebur plant response rating (cocklebur; [9]) | Cocklebur plant response rating (cocklebur; [8])
1: Cocklebur plant response rating (cocklebur; [1])
8: Giant foxtail plant response rating (giant foxtail; [2]) | Giant foxtail plant response rating (giant foxtail; [8])
5: Blackgrass plant response rating (blackgrass; [9]) | Blackgrass plant response rating (blackgrass; [5]) | Rape plant response rating (rape; [5]) | B. signalgrass plant response rating (surinam grass; [5]) | Plant response rating, Redroot pigweed (pigweed; [7]) | Redroot pigweed plant response rating (pigweed; [8]) | Crabgrass plant response rating (crabgrass; [2])
10: Plant response rating, Giant foxtail (giant foxtail; [3]) | Plant response rating, Giant foxtail (giant foxtail; [4]) | Giant foxtail plant response rating (giant foxtail; [5]) | Plant response rating, Crabgrass (crabgrass; [4]) | Crabgrass plant response rating (crabgrass; [5])
3: Rape plant response rating (rape; [9]) | Plant response rating, Sugarbeets (sugar beet; [18]) | Sugarbeets plant response rating (sugar beet; [8]) | Plant response rating, B. signalgrass (surinam grass; [4]) | Redroot pigweed plant response rating (pigweed; [1])
9: Redroot pigweed plant response rating (pigweed; [5]) | Crabgrass plant response rating (crabgrass; [8])
6: Plant response rating, Crabgrass (crabgrass; [3])
7: Soybean plant response rating (soybean; [8]) | Blackgrass plant response rating (blackgrass; [8]) | Giant foxtail plant response rating (giant foxtail; [1]) | Giant foxtail plant response rating (giant foxtail; [9]) | Plant response rating, Redroot pigweed (pigweed; [4])
0: Soybean plant response rating (soybean; [2]) | Plant response rating, Soybean (soybean; [3]) | Plant response rating, Soybean (soybean; [4]) | Blackgrass plant response rating (blackgrass; [2]) | Plant response rating, Blackgrass (blackgrass; [3]) | Blackgrass plant response rating (blackgrass; [6]) | Corn plant response rating (corn; [1]) | Corn plant response rating (corn; [9]) | Corn plant response rating (corn; [2]) | Plant response rating, Corn (corn; [3]) | Plant response rating, Corn (corn; [4]) | Corn plant response rating (corn; [6]) | Corn plant response rating (corn; [8]) | Barnyardgrass plant response rating (bamyardgrass; [10]) | Barnyardgrass plant response rating (bamyardgrass; Rate 125 g/ha, Postemergence section (flood test species), scale 0 to 10, 0 no effect, 10 complete control) | Barnyardgrass plant response rating (bamyardgrass; [11]) | Barnyardgrass plant response rating (bamyardgrass; [12]) | S. Flatsedge plant response rating (smallflower flatsedge; [13]) | S. Flatsedge plant response rating (smallflower flatsedge; [14]) | Plant response rating, S. Flatsedge (smallflower flatsedge; [15]) | S. Flatsedge plant response rating (smallflower flatsedge; [11]) | Rape plant response rating (rape; [2]) | Plant response rating, Rape (rape; [3]) | Plant response rating, Rape (rape; [4]) | Sugarbeets plant response rating (sugar beet; [2]) | Sugarbeets plant response rating (0 to 10 scale) (sugar beet; [16]) | Plant response rating, Sugarbeets (sugar beet; [17]) | Sugarbeets plant response rating (sugar beet; [5]) | Nutsedge plant response rating (purple nutsedge; [1]) | Nutsedge plant response rating (purple nutsedge; [9]) | Nutsedge plant response rating (purple nutsedge; [2]) | Plant response rating, Nutsedge (purple nutsedge; [3]) | Plant response rating, Nutsedge (purple nutsedge; [4]) | Nutsedge plant response rating (purple nutsedge; [5]) | Nutsedge plant response rating (purple nutsedge; [6]) | Nutsedge plant response rating (purple nutsedge; [8]) | B. signalgrass plant response rating (surinam grass; [10]) | B. signalgrass plant response rating (surinam grass; [9]) | B. signalgrass plant response rating (surinam grass; [2]) | Plant response rating, B. signalgrass (surinam grass; [3]) | B. signalgrass plant response rating (surinam grass; Rate 125 g/ha, Postemergence, scale 0 to 10, 0 no effect, 10 complete control) | Rice plant response rating (rice; [13]) | Rice plant response rating (rice; [14]) | Plant response rating, Rice (rice; [15]) | Rice plant response rating (rice; [11]) | Redroot pigweed plant response rating (pigweed; [2]) | Cocklebur plant response rating (cocklebur; [2]) | Plant response rating, Cocklebur (cocklebur; [3]) | Plant response rating, Cocklebur (cocklebur; [4]) | Cocklebur plant response rating (cocklebur; [5]) | Cocklebur plant response rating (cocklebur; [6]) | Ducksalad plant response rating (duck salad; [13]) | Ducksalad plant response rating (duck salad; [14]) | Ducksalad plant response rating (duck salad; [11]) | Ducksalad plant response rating (duck salad; [12]) | Wheat plant response rating (wheat; [1]) | Wheat plant response rating (wheat; [2]) | Wheat plant response rating (0 to 10 scale) (wheat; [16]) | Plant response rating, Wheat (wheat; [17]) | Wheat plant response rating (wheat; [5]) | Wheat plant response rating (wheat; [6]) | Plant response rating, Wheat (wheat; [18]) | Wheat plant response rating (wheat; [8]) | Crabgrass plant response rating (crabgrass; [6])
